# In patent US20070207544A1, “STROMA-FREE, SERUM-FREE, AND CHEMICALLY DEFINED MEDIUM AND METHOD FOR EX VIVO MONONUCLEAR CELL EXPANSION USING THE SAME” (FOOD INDUSTRY RESEARCH & DEVELOPMENT INSTITUTE, priority 2005, published 2007):
# Legend:
# white blood cells (WBCs) = test: Ex vivo expansion of UCB mononuclear cells: WBC growth (cell density); type: cell-based, human; conditions: for effect of serum substitute on WBC growth: sign of coefficient in Eq. (2), IMDM + seven cytokines; for effect of cytokine on WBC growth: sign of coefficient in Eq. (4), IMDM + BIT
# Method: (§1) The term UCB was harvested with a standard 250-ml blood bag (Terumo, Shibuya-ku, Tokyo, Japan) with the informed consent and processed within 24 hrs. Buffy coat cells were obtained from UCB by centrifugation (700×g, 20 mins), and were diluted with an equal volume of wash buffer (Dulbecco's phosphate buffered saline, D-PBS, containing 2 mM EDTA, Sigma, St. Louis, Mo.). Then the cells were layered onto Ficoll-Paque solution (ρ=1.077 g/ml, Amersham Biosciences, Uppsala, Sweden) and centrifuged to deplete red blood cells, platelets and plasma (700×g, 40 mins). MNCs were collected, and washed with D-PBS twice. Recovery rate, viability, percentage of CD34^+ fraction, colony-forming cells (CFCs), and long-term culture-initiating cells (LTC-ICs) were determined as day 0 for control. For expansion, MNC were seeded at a concentration of 5×10^5 cells/ml in 24-well plates with variable serum substitutes and cytokines according to experiment design (all experiments were repeated at least six times).
# (§2) Two-level factorial design followed the method of steepest ascent was carried out to find the optimal concentrations of serum substitutes and cytokines for CD34^+ cells expansion. Fractional and full factorial design data were regressed by SPSS software to obtain the first order polynomial. Its statistic significance was determined by an F-test and the significance of the regression coefficients was analyzed by a t-test. The polynomial takes the form of White blood cells (WBCs)/ml or CD34^+ cells/ml=α0+αixi (1)
# (§3) As has been extensively reviewed [Sandstrom C E, et al. Biotechnol Bioeng. 1994; 43:706-733; Mobest D, et al. Biotechnol Bioeng. 1998; 60:341-347; Bruyn C D, et al. Cytotherapy. 2003; 5:153-160] and based on the inventors' previous experience [Lebkowski J S, et al. Stem Cells. 1995; 13:607-612; Audet J, et al. Biotechnol Bioeng. 2002; 80:393-404; Yao C L, et al. Enzyme Micro Technol. 2003; 33:343-352], four kinds of compounds that are frequently used as serum substitutes were selected—bovine serum albumin (BSA), insulin, transferring (TF), and 2-mercaptoethanol (2-ME). The 2^4 full factorial design was adopted to determine which serum substitutes were required for CD34^+ cell expansion in the MNC culture system. The 2^4 full factorial design could efficiently test four compounds with 16 trials and provide completely degrees of freedom to obtain the coefficients. […] 2003; 33:343-352]; the initial cell density was 5×10^5 MNCs/ml and the cells were analyzed after 7-day culture.
# (§4) The 2^10-6 fractional factorial design (16 runs simultaneously) was adopted to identify which cytokines could help CD34^+ cell expansion in the MNC culture system. This design could efficiently test ten compounds with 16 trials and provide sufficient degrees of freedom to obtain the coefficients.
# CD34^+ cells = test: Ex vivo expansion of UCB mononuclear cells: CD34^+ cell growth by flow cytometry; type: cell-based, human; conditions: for effect of serum substitute on CD34^+ cell growth: sign of coefficient in Eq. (3), IMDM + seven cytokines
# Method: as §1, §2, §3, §4
compound,measurement,setting,value
"OCCS [2-ME, 2-mercaptoethanol, reference compound]",effect of serum substitute on WBC growth,white blood cells (WBCs),inhibit
same,effect of serum substitute on CD34^+ cell growth,CD34^+ cells,inhibit
"HGF: recombinant human hepatocyte growth factor; x10 in Eq. (4), (5)",effect of cytokine on WBC growth,white blood cells (WBCs),inhibit
"IL-6: recombinant human interleukin-6; x5 in Eq. (4), (5)",effect of cytokine on WBC growth,white blood cells (WBCs),inhibit
same,effect of cytokine on CD34^+ cell growth,"CD34^+ cells; sign of coefficient in Eq. (5), IMDM + BIT",positive effect
"TF: transferrin, serum substitute; x3 in Eq. (2), (3)",effect of serum substitute on WBC growth,white blood cells (WBCs),enhance
same,effect of serum substitute on CD34^+ cell growth,CD34^+ cells,enhance
"insulin: insulin, serum substitute; x2 in Eq. (2), (3)",effect of serum substitute on WBC growth,white blood cells (WBCs),enhance
same,effect of serum substitute on CD34^+ cell growth,CD34^+ cells,enhance
